# “Also recorded” adds a separate entry of the source.
# Key:
# [1] = test system: recurrent GBM; conditions: cited from earlier work
# [2] = test system: U87MG-luc intracranial xenograft; assay: Intracranial glioblastoma xenograft model with bioluminescence imaging
# Description: For tolerability study, 8-10 weeks old male BALB/c mice weighing approximately 25 g were used (Charles Rivers, US). For intracranial study, 8-10 weeks old female athymic nude (Nu/Nu) mice weighing approximately 25 g were used (Taconic Biosciences, US). All animals were housed in pathogen-free ventilated cages under environmentally controlled conditions of humidity and temperature (22° C.; 12:12 h light-dark cycle) with free access to pathogen-free food and water.
# F16 (100 mg/kg) was dissolved in a 10% DMSO+90% KolliphorEL (KP). TMZ (50 mg/kg) was dissolved in 10% DMSO+90% phosphate-buffered saline (PBS). All drugs were prepared fresh before the scheduled injection [21]. The total volume of injection was 100 μL/mouse for all experiments which was administered intraperitoneally.
# For intracranial study, the glioblastoma xenograft model was developed using athymic nude (Nu/Nu) mice. Briefly, mice were placed under general anesthesia (intraperitoneal injection of 100 mg/kg Ketamine and 10 mg/kg Xylazine) and were positioned in the stereotaxic device. A median incision of ˜1 cm was made, and a burr hole was drilled into the right striatum of the skull (1.0 mm forward and 2.0 mm lateral to the bregma). Subsequently, U87MG cells expressing the luc reporter gene (2×10^5 cells in 3 μL PBS) was injected using a 10-μl Hamilton syringe at the rate of 1 μL/min at a depth of 3 mm. Once injection was completed, the needle was kept in place for 2 minutes and then slowly removed, and the hole was sealed with a sterile bone wax. The incision was closed, and triple antibiotic ointment was applied. One week after tumor cell transplantation, mice were divided randomly into five groups (n=5 in each group): 1) control treated with DMSO in PBS, 2) control treated with DMSO in KP, 3) treated with F16 (100 mg/kg), 4) treated with temozolomide (50 mg/kg) and 5) treated with F16 (100 mg/kg) and 3 h later treated with temozolomide (50 mg/kg). One more group with no tumor implant was added to the study as a negative control (n=5). The experimental mice were treated twice per week for 3 weeks.
# Bioluminescence imaging (BLI) was used to assess and confirm tumor growth in intracranial xenograft. BLI was carried out in vivo using the Bruker Xtreme which is a sensitive optical X-ray machine designed for preclinical in vivo study based on BLI concept. Briefly, mice were injected intraperitoneally with D-luciferin (Sigma) dissolved in saline at a dose of 150 mg/kg body weight. Immediately after the injection, mice were anesthetized by isoflurane and series of bioluminescent images was acquired with 3-minutes acquisition intervals for approximately 20 minutes, by which time, the luciferin had been washed out. The image with the peak BLI intensity was used for quantification in units of photon counts.
# [3] = test system: Glioblastoma multiforme (GBM); conditions: human, in vivo; cited from earlier work
# [4] = rats and monkeys; cited from earlier work
# [5] = test system: U87MG cells; assay: MTT cytotoxicity assay; assay type: cell-based; conditions: Homo sapiens, U-87 MG, 24 h, read-out: IC50 (50% reduction of U87MG cell viability)
# Description: The cell viability was assessed using a 3-(4,5-dimethylthiazol-2-yl)-2, 5-diphenyltetrazolium bromide (MTT) assay (Sigma-Aldrich, St. Louis, Mo., USA), and trypan blue dye exclusion method (TBDE). For the MTT assay, U87MG cells were cultured in a 96 well-plate at a density of 5×10^3 per well and incubated at 37° C. under 5% CO2 for 24 h. Then, the cells were treated with different concentrations of F16 (0.1-100 μM) and TMZ (0.1-500 μM) for 24 h. At the end of treatment, the old medium was aspirated, and 10 μL of MTT (0.5 mg/mL in PBS) was added to each well and the cells were incubated at 37° C. for an additional 3 h. Finally, the MTT solution was removed, and 100 μL of dimethyl sulfoxide (DMSO) was added to each well. The plate was gently rotated on an orbital shaker for 10 min to completely dissolve the precipitation and the absorbance was measured at 570 nm using Microplate Reader (VersaMax, Molecular Devices, Sunnyvale, Calif., USA). For the TBDE method, U87MG cells were cultured in a 24 well-plate at a density of 5×10^4 per well and incubated at 37° C. under 5% CO2 for 48 h. Then, the cells were treated with different concentrations of F16 (0.1-100 μM) and TMZ (10-1000 μM). […] The viable cells were counted with a Bio-Rad TC20™ Automated Cell Counter (Hercules, Calif., USA)
# [6] = Tolerability / toxicity study; conditions: i.p. twice a week for 4 weeks
# Description: For tolerability study, 8-10 weeks old male BALB/c mice weighing approximately 25 g were used (Charles Rivers, US). […] All animals were housed in pathogen-free ventilated cages under environmentally controlled conditions of humidity and temperature (22° C.; 12:12 h light-dark cycle) with free access to pathogen-free food and water. All animal care and experiments were performed in accordance with the guidelines and approval of the Institutional Animal Care and Use Committee (IACUC) of Nova Southeastern University (NSU), Ft. Lauderdale, Fla.
# TMZ (50 mg/kg) was dissolved in 10% DMSO+90% phosphate-buffered saline (PBS). All drugs were prepared fresh before the scheduled injection [21]. The total volume of injection was 100 μL/mouse for all experiments which was administered intraperitoneally.
# For tolerability studies, BALB/c mice were randomly assigned to 4 different treatment groups (FIG. 15: Table 1). At the end of the treatment period, blood samples from all the mice were collected and sent to the Department of Comparative Pathology at the University of Miami (City of Miami, Fla.) to analyze the hematological and biochemical parameters.
# Mice injected with KP were used as controls. All drugs were administered as i.p. injections twice a week for 4 weeks. Independent toxicity evaluations, serum biochemistry, post-mortem gross examination, and histopathological examination of major organs were performed at Comparative Pathology Department at the University of Miami, Fla.
# [7] = test system: U87MG cells; assay: Trans-well migration assay; assay type: cell-based, human; conditions: 24 h; F16 20 μM, TMZ 400 μM
# Description: The migration ability of U87MG cell was determined using both scratch and trans-well assays. For the scratch assay, monolayer of U87MG cells was grown on 6-well plates close to 80% confluency. Using a sterile 200 μL tip, a single straight line scratch was made in each well. The wells were washed with phosphate-buffered saline (PBS) and refilled with growth medium containing various concentrations of F16 (0.1-20 μM) and TMZ (10-400 μM). The images were captured using Leica microscope at 12 h and 24 h post-scratch. For the trans-well migration assay, 6.5 mm trans-well plates polycarbonate membrane inserts (Corning, N.Y., USA) with 8 μm pore size were used. After an initial equilibrium period, 5×10^4 cells suspended in 100 μL basal medium without FBS were added to the upper compartment of the trans-well inserts and exposed to different concentrations of F16 (0.1-20 μM) and TMZ (10-400 μM). The lower chamber was filled with 600 μL of EMEM medium supplemented with 10% fetal bovine serum. Then, trans-well plates were incubated at 37° C. under 5% CO2 for 24 h to allow for the migration of U87MG cells across the porous membrane. […] Five different fields per well were captured with a Leica microscope (DMI 3000 B; IL, USA) using 10× magnification, and the number of cells that penetrated the membrane was counted using ImageJ software (NIH Image, Bethesda, Md., USA).
# [8] = test system: U87MG cells; assay: Trypan blue dye exclusion method (TBDE); assay type: cell-based, human; conditions: F16 100 μM, TMZ 1000 μM
# Description: The cell viability was assessed using a 3-(4,5-dimethylthiazol-2-yl)-2, 5-diphenyltetrazolium bromide (MTT) assay (Sigma-Aldrich, St. Louis, Mo., USA), and trypan blue dye exclusion method (TBDE). For the MTT assay, U87MG cells were cultured in a 96 well-plate at a density of 5×10^3 per well and incubated at 37° C. under 5% CO2 for 24 h. Then, the cells were treated with different concentrations of F16 (0.1-100 μM) and TMZ (0.1-500 μM) for 24 h. At the end of treatment, the old medium was aspirated, and 10 μL of MTT (0.5 mg/mL in PBS) was added to each well and the cells were incubated at 37° C. for an additional 3 h. Finally, the MTT solution was removed, and 100 μL of dimethyl sulfoxide (DMSO) was added to each well. The plate was gently rotated on an orbital shaker for 10 min to completely dissolve the precipitation and the absorbance was measured at 570 nm using Microplate Reader (VersaMax, Molecular Devices, Sunnyvale, Calif., USA). For the TBDE method, U87MG cells were cultured in a 24 well-plate at a density of 5×10^4 per well and incubated at 37° C. under 5% CO2 for 48 h. Then, the cells were treated with different concentrations of F16 (0.1-100 μM) and TMZ (10-1000 μM). After 24, 48, and 72 h of treatments, an aliquot (50 μL) of the cell suspension from each treatment was mixed with 1:1 (v/v) volume of 0.4% trypan blue. The viable cells were counted with a Bio-Rad TC20™ Automated Cell Counter (Hercules, Calif., USA)
# [9] = test system: U87MG derived xenograft tumor; assay type: in vivo
# Description: Lauderdale, Fla. Animals were subcutaneously injected into the right flank of each mouse, with 4×10^6 of U87MG glioblastoma cancer cells suspended in 100 μL of PBS mixed with Matrigel (BD Biosciences). […] The experimental mice were treated once in every 2 days for the period of 16 days. At the end of the treatment, the tumors were isolated and then the tumor length (L) and width (W) were measured to calculate the tumor volume (TV) according to the formula: TV=1/2×(L×W^2). To determine the tumor inhibitory effects of F16 and TMZ treatments, the inhibition ratio (IR) was calculated using the formula: […]
# At the end of the treatment, all the animals in the control and experimental groups were sacrificed and tumors were excised and weighed.
compound,measurement,setting,value
Bevacizumab [BVZ],overall survival (OS),[1]; patients with (recurrent) GBM,no improvement; also recorded: failed to improve
same,progression free survival (PFS),[1]; recurrent GBM,did improve
"Cn1nnc2c(C(N)=O)ncn2c1=O [TMZ, Temozolomide, reference compound]",body weight,[2]; compared to mice treated with vehicles (PBS/KP),No significant change
same,tumor inhibition,[2]; intracranial xenograft model,99%
same,condition of excised brains,"[2]; mouse, in vivo",fragile and damaged
same,mice that lived until day 50 post implantation,"[2]; mouse, in vivo",60%
same,median survival,"[2]; vehicles-PBS 34 days, vehicles-KP 36 days",47 days
same,TMZ treated patients who develop significant toxicity,[3],15-20%
same,levels of TMZ in the brain as % of the plasma concentration,[4],30-40%
same,IC50,[5],430 µM
same,ALT level (liver function),[6],Significant elevation; also recorded: significantly elevating
same,BUN levels (kidney function),[6],No significant changes
same,RBC,[6],slight increase
same,WBC counts,[6],significant increase
same,hematocrit,[6],slight increase
same,U87MG cells trapped in the upper compartment as compared to untreated cells,[7],About 80%
same,maximum percentage of U87MG cells death,[8]; 24 h,68%
same,maximum percentage of U87MG cells death,[8]; 48 h,95%
same,maximum percentage of U87MG cells death,[8]; 72 h,82%
same,suppression of tumor growth,"[9]; i.p., once every 2 days for 16 days, F16 100 mg/kg, TMZ 50 mg/kg, combination of both",53%
same,signs of toxicity / tolerability,"[9]; mouse, in vivo",symptoms of toxicity

# — patent publication US20220409581A1, “METHODS AND COMPOSITIONS FOR TREATMENT OF SOLID TUMORS USING F16 ISOINDOLE SMALL MOLECULES” (Nova Southeastern University, priority 2019, published 2022)
